In patent US9340819B2, “Method for detecting the presence of carbapenemase-producing bacteria in a sample” (priority 2011, dated 2016):
In brackets after ≈: the same amount, converted by molar mass.

Legend:
K. pneumoniae = assay: MIC by Etest on Mueller-Hinton agar (Example 1); assay type: cell-based; settings: Klebsiella pneumoniae
Description: Prior to performing the method of the invention, susceptibility testings were performed by determining Minimum Inhibitory Concentration (MIC) values by the Etest® (AB bioMérieux; Solna, Sweden) on Mueller-Hinton agar plates at 37° C. and results of susceptibility testing were recorded according to the Clinical and Laboratory Standards Institute (CLSI) guidelines as modified in June 2010 (18). The breakpoints for imipenem are S≦1 μg/ml (susceptibility) and R≧4 μg/ml (resistant). As for those for ertapenem, they are S≦0.25 μg/ml and R≧1 μg/ml (see Tables 1 and 2).

P. stuartii = assay: MIC of carbapenem by Etest (Example 2); assay type: cell-based, Providencia stuartii; settings: P. stuartii NDM-1, n=1
Description: All strains had previously been characterized for their β-lactamase content at the molecular level. Minimum inhibitory concentration of carbapenem were determined using the Etest® (AB bioMérieux, Solna, Sweden) and results were recorded according to US guidelines (CLSI), as updated in 2011.

P. stutzeri = assay: Susceptibility testing by Etest on Mueller-Hinton agar (Example 3); assay type: cell-based; settings: Stutzerimonas stutzeri
Description: (§1) Susceptibility testing was performed using the Etest® (bioMérieux; La Balmes-les-Grottes, France) on Mueller-Hinton agar plates (Becton Dickinson, Le Pont de Chaix, France) at 37° C. and results were recorded according to US guidelines (CLSI), as updated in 2012. The breakpoints for imipenem, meropenem and doripenem are as follows; susceptibility (S)≦2, and resistance (R)≧8 μg/ml.

P. fluorescens = assay: as above; assay type: cell-based; settings: Pseudomonas fluorescens
Description: as §1

P. putida = assay: as above; assay type: cell-based; settings: Pseudomonas putida
Description: as §1

[1] = CIP53153, K. pneumoniae CIP53153 (30), wild-type
[2] = K. pneumoniae 1 OMA (11), NDM-1 + CTX-M-15 + OXA-1 + OXA-9
[3] = K. pneumoniae 2 OMA, NDM-1 + OXA-1
[4] = K. pneumoniae 7 AFR, NDM-1 + OXA-1 + CTX-M-15 + CMY-6 + TEM-1
[5] = K. pneumoniae 6299 (19), ESBL OXA-163
[6] = K. pneumoniae 6759 GEN, NDM-1 + CTX-M-15 + OXA-1 + OXA-9 + OXA-10 + CMY16
[7] = K. pneumoniae (16), ESBL CTX-M-15
[8] = K. pneumoniae BER (28), porin deficiency associated with ESBL, TEM
[9] = K. pneumoniae CHA (5), OXA-48 + TEM-1
[10] = K. pneumoniae COO (27), porin deficiency associated with ESBL, CTX-M-15 + SHV-28
[11] = K. pneumoniae EGY, OXA-48 + CTX-M-15
[12] = K. pneumoniae H1516-6 COL (3), KPC-2 + TEM-1 + CTXM-15
[13] = K. pneumoniae HOL, OXA-181 + CTX-M-15
[14] = K. pneumoniae IND, NDM-1 + OXA-1 + CTX-M-15
[15] = K. pneumoniae MAD, VIM-1 + CTX-M-3
[16] = K. pneumoniae OMA (8), OXA-181 + CTXM-15 + OXA-1
[17] = K. pneumoniae UK (10), NDM-1 + CTX-M-15 + CMY-4 + OXA-1

SMILES | MIC (K. pneumoniae; [1]) [µg/mL] | MIC (K. pneumoniae; [2]) [µg/mL] | MIC (K. pneumoniae; [3]) [µg/mL] | MIC (K. pneumoniae; [4]) [µg/mL] | MIC (K. pneumoniae; [5]) [µg/mL] | MIC (K. pneumoniae; [6]) [µg/mL] | MIC (K. pneumoniae; [7]) [µg/mL] | MIC (K. pneumoniae; K. pneumoniae BEL, OXA-48) [µg/mL] | MIC (K. pneumoniae; [8]) [µg/mL] | MIC (K. pneumoniae; K. pneumoniae BIC (4), OXA-48) [µg/mL] | MIC (K. pneumoniae; [9]) [µg/mL] | MIC (K. pneumoniae; [10]) [µg/mL] | MIC (K. pneumoniae; K. pneumoniae DIN, NDM-1) [µg/mL] | MIC (K. pneumoniae; [11]) [µg/mL] | MIC (K. pneumoniae; [12]) [µg/mL] | MIC (K. pneumoniae; [13]) [µg/mL] | MIC (K. pneumoniae; [14]) [µg/mL] | MIC (K. pneumoniae; K. pneumoniae MAD (15), IMP-13) [µg/mL] | MIC (K. pneumoniae; [15]) [µg/mL] | MIC (K. pneumoniae; [16]) [µg/mL] | also measured
C[C@@H](O)[C@H]1C(=O)N2C(C(=O)O)=C(S[C@@H]3CN[C@H](C(=O)Nc4cccc(C(=O)O)c4)C3)[C@H](C)[C@H]12 [ERT, ertapenem] | 0.19 (≈ 0.4 µM) | > 32 | > 32 | > 32 | 0.19 (≈ 0.4 µM) | 32 | 0.19 (≈ 0.4 µM) | 4 (≈ 8.41 µM) | 0.75 (≈ 1.58 µM) | 2 (≈ 4.21 µM) | 1 | 0.75 | 32 (≈ 67.3 µM) | 3 | 3 | 1 | 8 | 2 (≈ 4.21 µM) | > 32 | 2 | MIC (K. pneumoniae; K. pneumoniae RAM, OXA-48): 2 µg/mL (≈ 4.21 µM); MIC (K. pneumoniae; K. pneumoniae SAB, NDM-1): 8 µg/mL (≈ 16.8 µM); MIC (K. pneumoniae; [17]): 32 µg/mL; MICs range (P. stuartii): 0.38 mg/L
C[C@@H](O)[C@H]1C(=O)N2C(C(=O)O)=C(SCCN=CN)C[C@H]12 [IMP, imipenem] | 0.19 (≈ 0.635 µM) | > 32 | > 32 | > 32 | 0.19 (≈ 0.635 µM) | 6 | 0.19 (≈ 0.635 µM) | 1 (≈ 3.34 µM) | 0.5 (≈ 1.67 µM) | 0.5 (≈ 1.67 µM) | 0.5 | 0.5 | 8 (≈ 26.7 µM) | 2 | 2 | 0.5 | 6 | 0.5 (≈ 1.67 µM) | > 32 | 0.5 | MIC (K. pneumoniae; K. pneumoniae RAM, OXA-48): 1 µg/mL (≈ 3.34 µM); MIC (K. pneumoniae; K. pneumoniae SAB, NDM-1): 2 µg/mL (≈ 6.68 µM); MIC (K. pneumoniae; [17]): 8 µg/mL; MICs range (P. stuartii): 12 mg/L; MIC (P. stutzeri; P. stutzeri 13, DIM-1): > 0.032 µg/mL; MIC (P. stutzeri; P. stutzeri P511503100, VIM-2): > 0.032 µg/mL; MIC (P. stutzeri; P. stutzeri PB207, IMP-1): 0.002 µg/mL (≈ 0.00668 µM); MIC (P. fluorescens; P. fluorescens COU, VIM-2): > 0.032 µg/mL; MIC (P. fluorescens; P. fluorescens, BIC-1): > 0.032 µg/mL; MIC (P. putida; CIP55, P. putida CIP 55-5, wild type, none): 0.0005 µg/mL (≈ 0.00167 µM); MIC (P. putida; P. putida 9335, VIM-2): > 0.032 µg/mL; MIC (P. putida; P. putida NTU 91/99, VIM-2): > 0.032 µg/mL; MIC (P. putida; P. putida NTU 92/99, IMP-1): 0.001 µg/mL (≈ 0.00334 µM)
